Measured values taken from patent US20080090847A1, “HETEROCYCLIC COMPOUNDS AND USES THEREOF AS D-ALANYL-D-ALANINE LIGASE INHIBITORS” (PLIVA D.D., priority 2001, published 2008).
Where two headings read alike, the source gives them in different places.

How the values were obtained:
Type in all cases: biochemical
[1] = molecular target: E. coli ligase (D-Ala-D-Ala ligase) (Escherichia coli, UniProt P07862); test: D-Ala-D-Ala ligase Ki determination (PK/LDH coupled assay), E. coli ligase
Text: (§1) Inhibition of D-Ala-D-Ala ligase can be assayed for using the pyruvate kinase/lactate dehydrogenase (PK/LDH) assay described in Example 2, and as described in the literature (e.g., in Sarthy et al., Anal. Biochem., 254:288-290, 1997). In the bacterial cell wall synthesis process, the ligase catalyzes the conversion of adenosine triphosphate (ATP) to adenosine diphosphate (ADP) concurrent with the ligation of two D-alanine residues to form D-alanyl-D-alanine. PK then regenerates ATP from the ADP thus created simultaneously with the conversion of phosphopyruvate to pyruvate. LDH catalyzes the reduction of pyruvate to lactate by converting NADH to NAD^+. By monitoring the production rate of NAD^+ (e.g., using UV/Vis spectroscopy), D-Ala-D-Ala ligase activity can be ascertained.
(§2) The protein sequence for the enzyme D-ala-D-ala ligase has been determined in a variety of different bacterial species using standard techniques in biochemistry (see Table 5). The protein sequence from any species can be overexpressed in an appropriate host organism such as E. coli using standard molecular biology techniques. The ligase enzyme can be harvested, purified, and used in the above described assay for the determination of inhibitory activity.
(§3) The synthetic analogs of Example 1 were dissolved in dimethylsulfoxide (DMSO) at a concentration of 100 mM on the day of screening, using a vortex mixer and sonication if necessary for dissolution. The solutions were kept at room temperature until screening was completed.
(§4) A 10 mM NADH (Sigma) stock solution was prepared freshly on the day of screening by dissolving 32 μmol NADH in 3.2 ml double-distilled water. The NADH solution was kept on ice. Stock solutions containing 50 mM phosphoenolpyruvate (PEP; Sigma), 500 μM HERMES, 30 mM adenosine triphosphate (ATP; Sigma), 200 mM D-alanine (Sigma), and 4× core buffer (i.e., 400 mM Hepes, 40 mM magnesium chloride, and 40 mM potassium chloride), were also stored on ice. A stock solution of pyruvate kinase/lactate dehydrogenase (PK/LDH) was also obtained from Sigma.
(§5) Table of Final concentrations are dependent on the type of screening:
(§6) For each set of test compounds, two 96-well plates were used: an inhibitor plate and an enzyme plate. The test compounds correspond to rows A-G of the plates. Adenosine (Sigma) dissolved in DMSO, used as a control, corresponds to row H of each plate.
(§7) The enzyme solution was allowed to equilibrate to 25° C.
(§8) Dilutions were prepared in the inhibitor plate as follows: 50 μl DMSO was added to each well of columns 1-11, rows A-G, of the inhibitor plate. 50 μl DMSO were added to each well of columns 1-11, row H. 100 μl of the 100 mM test solutions were added to column 12, rows A-G (i.e., the first compound in row A, the second compound in row B, and so on). 100 μl of a 100 mM Adenosine solution was added to column 12, row H.
(§9) 50 μl of the test solution was transferred from column 12 in each row to column 11 of the a same row, mixing the solution with the DMSO. 50 μl of solution was then transferred from column 11 in each row to column 10 in the same row, 50 μl from column 10 was transferred to column 9, and so on, down to column 2. No solution was transferred to column 1. Multichannel pipettors were used in making the serial dilution.
(§10) 120 μl of the enzyme solution was added to each well of the enzyme plate.
(§11) The substrate solutions were brought to 25° C.
(§12) The analogs and enzymes were then incubated at 25° C. Since the reactions were initiated in columns, the analog addition is also in columns. At t=0 minutes, 5 μl analog was transferred from each well of columns 1-4 of the inhibitor plate to the corresponding well of the enzyme plate. At t=4 minutes, 5 μl analog was transferred from each well of columns 5-8 of the inhibitor plate to the corresponding well of the enzyme plate. At t=8 minutes, 5 μl analog was transferred from each well of columns 9-12 of the inhibitor plate to the corresponding well of the enzyme plate. The inhibitor plate was then frozen. […]

[2] = molecular target: Staph ligase (D-Ala-D-Ala ligase) (Staphylococcus aureus, UniProt Q5HEB7); test: D-Ala-D-Ala ligase Ki determination (PK/LDH coupled assay), Staph ligase
Text: as §1, §2, §3, §4, §5, §6, §7, §8, §9, §10, §11, §12

[3] = molecular target: H. Influenzae ligase (D-Ala-D-Ala ligase) (Haemophilus influenzae, UniProt P44405); test: D-Ala-D-Ala ligase Ki determination (PK/LDH coupled assay), H. influenzae ligase; conditions: for Ki: Ki/ATP, avg, read-out: H. Influenzae ligase Ki/ATP (uM) avg
Text: as §1, §2, §3, §4, §5, §6, §7, §8, §9, §10, §11, §12

[4] = molecular target: T1, Strep ligase (D-Ala-D-Ala ligase) (Streptococcus pneumoniae serotype 4, UniProt P0CB57); test: D-Ala-D-Ala ligase Ki determination (PK/LDH coupled assay), Strep ligase; conditions: for Ki: Ki/ATP, avg, read-out: Strep ligase Ki/ATP (uM) avg
T1 sequence (P0CB57 1-347): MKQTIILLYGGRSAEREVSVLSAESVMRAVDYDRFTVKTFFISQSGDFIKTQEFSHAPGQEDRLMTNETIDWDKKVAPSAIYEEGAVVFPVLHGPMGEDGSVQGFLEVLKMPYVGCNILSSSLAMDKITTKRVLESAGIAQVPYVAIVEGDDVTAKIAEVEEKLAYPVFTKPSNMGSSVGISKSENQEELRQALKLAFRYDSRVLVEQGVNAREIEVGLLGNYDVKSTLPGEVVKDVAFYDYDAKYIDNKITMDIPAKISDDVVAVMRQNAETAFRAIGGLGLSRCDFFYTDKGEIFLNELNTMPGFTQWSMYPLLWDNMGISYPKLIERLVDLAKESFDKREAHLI
Text: as §1, §2, §3, §4, §5, §6, §7, §8, §9, §10, §11, §12

[5] = Table 1, read-out: Ki (E. coli ligase)/μM
[6] = E. coli ligase Ki/ATP (uM) avg, Table 3, Ki/ATP, avg
[7] = Table 3, Ki/ATP, avg, read-out: Staph ligase Ki/ATP (uM) avg
[8] = E. coli ligase Ki/ATP (uM) avg, Table 4, Ki/ATP, avg
[9] = Table 4, Ki/ATP, avg, read-out: Staph ligase Ki/ATP (uM) avg
[10] = Table 2, read-out: Staph ligase

Sequence of Staph ligase (D-Ala-D-Ala ligase) (Q5HEB7 whole entry): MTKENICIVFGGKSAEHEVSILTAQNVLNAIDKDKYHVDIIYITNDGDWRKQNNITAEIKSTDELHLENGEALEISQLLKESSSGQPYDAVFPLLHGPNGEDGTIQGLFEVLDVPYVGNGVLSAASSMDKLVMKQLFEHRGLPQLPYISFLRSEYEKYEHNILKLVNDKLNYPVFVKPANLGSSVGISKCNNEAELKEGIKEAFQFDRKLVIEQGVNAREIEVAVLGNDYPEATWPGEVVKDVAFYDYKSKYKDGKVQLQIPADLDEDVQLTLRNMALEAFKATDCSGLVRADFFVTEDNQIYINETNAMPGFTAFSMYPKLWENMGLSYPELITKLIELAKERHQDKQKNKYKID
Sequence of H. Influenzae ligase (D-Ala-D-Ala ligase) (P44405 whole entry): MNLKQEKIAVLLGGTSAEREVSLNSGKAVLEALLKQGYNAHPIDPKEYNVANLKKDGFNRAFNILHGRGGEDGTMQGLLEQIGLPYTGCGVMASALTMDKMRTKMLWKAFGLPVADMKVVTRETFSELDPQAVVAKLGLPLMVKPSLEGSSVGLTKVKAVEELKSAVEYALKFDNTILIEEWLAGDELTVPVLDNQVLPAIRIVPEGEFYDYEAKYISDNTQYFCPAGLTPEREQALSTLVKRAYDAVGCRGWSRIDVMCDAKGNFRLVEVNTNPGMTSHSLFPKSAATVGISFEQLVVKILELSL

Nc1nc(N)c2cc(NCc3ccc(C(=O)NCc4ccccn4)cc3)ccc2n1
Ki [1, 5]: 73 µM

Nc1nc(N)c2ccc(-c3ccccc3)nc2n1
Ki [1, 5]: 31 µM

CC(C)c1nc2nc(N)nc(N)c2nc1C(C)C
Ki [1, 5]: 37 µM

Nc1nc(N)c2nc(CNc3cc(Cl)cc(Cl)c3)cnc2n1
Ki [1, 5]: 1 µM

Nc1nc(N)c2ncc(CNC(CO)CSCc3ccccc3)nc2n1 (stereo not drawn)
Ki [1, 5]: 55 µM

Cc1ccc(C(C)C)cc1OCc1ncc2c(N)nc(N)nc2n1
Ki [1, 5]: 20 µM

Nc1nc(N)c2cnc(CSc3ccc(Cl)cc3)nc2n1
Ki [1, 5]: 12 µM

Nc1nc(N)c2cnc(NCc3ccc(Cl)c(Cl)c3)nc2n1
Ki [1, 5]: 20 µM

CC(Nc1ncc2c(N)nc(N)nc2n1)C(=O)Nc1ccc2ccccc2c1 (stereo not drawn)
Ki [1, 5]: 29 µM

Nc1nc(N)c2cnc(/C=C/c3ccccc3)nc2n1
Ki [1, 5]: 14 µM

Nc1nc(N)c2cnc(N[C@H]3CCCc4ccccc43)nc2n1
Ki [1, 5]: 16 µM

CN(Cc1cccc2ccccc12)c1ncc2c(N)nc(N)nc2n1
Ki [1, 5]: 3 µM

CN(CCC=C1c2ccccc2CCc2ccccc21)c1ncc2c(N)nc(N)nc2n1
Ki [1, 5]: 9 µM

Nc1nc(N)c2cnc(N[C@H]3CCN(Cc4ccccc4)C3)nc2n1
Ki [1, 5]: 13 µM

Nc1nc(N)c2cnc(N3C4CC3N4c3ccc(Cl)cc3)nc2n1
Ki [1, 5]: 12 µM

CC1C(C)N(c2ncc3c(N)nc(N)nc3n2)C(C)C(C)N1c1ncc2c(N)nc(N)nc2n1 (stereo not drawn)
Ki [1, 5]: 2 µM

Nc1nc(N)c2cnc(NCCNC(=O)c3c(Cl)cccc3Cl)nc2n1
Ki [1, 5]: 12 µM

Nc1nc(N)c2cnc(CNC(=O)/C=C/c3ccccc3)nc2n1
Ki [1, 5]: 92 µM

Nc1nc(N)c2cnc(N(CCCO)Cc3ccccc3)nc2n1
Ki [1, 5]: 14 µM

Nc1nc(N)c2cnc(N3CCC(O)(c4cccc(F)c4)CC3)nc2n1
Ki [1, 5]: 0.59 µM

Nc1nc(N)c2cnc(Nc3ccc(Cl)c(C(=O)NCc4cccs4)c3)nc2n1
Ki [1, 5]: 0.5 µM

CN(Cc1cc2ccccc2s1)c1ncc2c(N)nc(N)nc2n1
Ki [1, 5]: 2.9 µM

CN(Cc1cnc2ccccc2c1)c1ncc2c(N)nc(N)nc2n1
Ki [1, 5]: 1 µM

CC(c1cccc2ccccc12)N(CC(O)C(=O)O)c1ncc2c(N)nc(N)nc2n1 (stereo not drawn)
Ki [1, 5]: 0.5 µM

CCOc1ccc2ccccc2c1CN(CC(=O)O)c1ncc2c(N)nc(N)nc2n1
Ki [1, 5]: 8.7 µM

CCOc1ccc2ccccc2c1CN(CCC(=O)NCCN)c1ncc2c(N)nc(N)nc2n1
Ki for E. coli ligase (in words) [1]: less than one micromolar | Ki [1, 6]: 0.7 µM | S. aureus ligase activity (in words) [2]: single digit micromolar | Ki [2, 7]: 4.7 µM | Ki for H. influenzae ligase (in words) [3]: less than one micromolar | Ki ([3]; Table 3): 1 µM | S. pneumoniae ligase activity (in words) [4]: single digit micromolar | Ki ([4]; Table 3): 1.9 µM

CCOc1ccc2ccccc2c1CN(CCC(=O)NCc1ccccn1)c1ncc2c(N)nc(N)nc2n1
Ki [1, 6]: 9.6 µM | Ki [2, 7]: 9.5 µM | Ki ([3]; Table 3): 0.267 µM | Ki ([4]; Table 3): 3.1 µM

CCOc1ccc2ccccc2c1CN(CCC(=O)N1CCOCC1)c1ncc2c(N)nc(N)nc2n1
Ki [1, 6]: 1.9 µM | Ki [2, 7]: 3.8 µM | Ki ([3]; Table 3): 1.3 µM | Ki ([4]; Table 3): 4.1 µM

CCOc1ccc2ccccc2c1CN(CCC(=O)O)c1ncc2c(N)nc(N)nc2n1
Ki [1, 8]: 5.3 µM | Ki [2, 9]: 6.7 µM | Ki ([3]; Table 4): 3.7 µM | Ki ([4]; Table 4): 2.1 µM

C[C@@H](c1cccc2ccccc12)N(CCC(=O)O)c1ncc2c(N)nc(N)nc2n1
Ki [1, 8]: 4.2 µM | Ki [2, 9]: 10 µM | Ki ([3]; Table 4): 5.7 µM | Ki ([4]; Table 4): 14.6 µM

C[C@@H](c1cccc2ccccc12)N(CC(O)C(=O)O)c1ncc2c(N)nc(N)nc2n1 (stereo partly drawn)
Ki [1, 8]: 1.4 µM | Ki [2, 9]: 4.3 µM | Ki ([3]; Table 4): 3.5 µM | Ki ([4]; Table 4): 4.3 µM

C[C@@H](c1cccc2ccccc12)N(C[C@@H](O)C(=O)O)c1ncc2c(N)nc(N)nc2n1 (racemic)
Ki [1, 8]: 0.611 µM | Ki [2, 9]: 7.8 µM

C[C@H](c1ccc(F)c2ccccc12)N(C)c1ncc2c(N)nc(N)nc2n1 [CH3|CH3|R|F]
Ki ([1]; E. coli ligase (μM), Table 2): 0.104 µM | Ki [2, 10]: 27 µM

CC(c1cccc2ccccc12)N(CCCCN)c1ncc2c(N)nc(N)nc2n1 (stereo not drawn) [drawing 41]
Ki [1, 5]: 0.13 µM

CCN(c1ncc2c(N)nc(N)nc2n1)C(C)c1ccc(C)c2ccccc12 (stereo not drawn) [—CH2CH3|CH3|R/S|CH3]
Ki ([1]; E. coli ligase (μM), Table 2): 0.21 µM | Ki [2, 10]: 38.5 µM

CCN(c1ncc2c(N)nc(N)nc2n1)[C@H](C)c1ccc(C)c2ccccc12 [—CH2CH3|CH3|R|CH3]
Ki ([1]; E. coli ligase (μM), Table 2): 0.102 µM | Ki [2, 10]: 71 µM

Cc1ccc([C@@H](C)N(CC2CC2)c2ncc3c(N)nc(N)nc3n2)c2ccccc12 [—CH2CH(CH2)2|CH3|R|CH3]
Ki ([1]; E. coli ligase (μM), Table 2): 0.174 µM | Ki [2, 10]: 62 µM

CCC(c1cccc2ccccc12)N(C)c1ncc2c(N)nc(N)nc2n1 (stereo not drawn) [—CH3|C2H5|R/S|H, N7-Methyl-N-7-(1-naphthalen-1-yl-propyl)-pyrimido[4,5-d]pyrimidine-2,4,7-triamine]
Ki ([1]; E. coli ligase (μM), Table 2): 0.452 µM | Ki [2, 10]: 4.6 µM

Cc1ccc(C(C)N(C)c2ncc3c(N)nc(N)nc3n2)c2ccccc12 (stereo not drawn) [—CH3|CH3|R/S|CH3, N7-Methyl-N7-[1-(4-methyl-naphthalen-1-yl)-ethyl]-pyrimido[4,5-d]pyrimidine-2,4,7-triamine]
Ki ([1]; E. coli ligase (μM), Table 2): 0.277 µM | Ki [2, 10]: 12.3 µM

CC(c1ccc(Cl)c2ccccc12)N(C)c1ncc2c(N)nc(N)nc2n1 (stereo not drawn) [—CH3|CH3|R/S|Cl]
Ki ([1]; E. coli ligase (μM), Table 2): 0.201 µM | Ki [2, 10]: 4.9 µM

CC(c1cccc2ccccc12)N(C)c1ncc2c(N)nc(N)nc2n1 (stereo not drawn) [—CH3|CH3|R/S|H]
Ki ([1]; E. coli ligase (μM), Table 2): 0.718 µM | Ki [2, 10]: 9.28 µM
